Test results: US20250049033A1, “PESTICIDALLY ACTIVE PYRIDAZINONE COMPOUNDS” (SYNGENTA CROP PROTECTION AG, priority 2021, published 2025)

How the values were obtained:
Format in all cases: in vivo
Chilo suppressalis = experiment: Activity against Chilo suppressalis (striped rice stemborer), artificial diet, L2 larvae; details: 144 h, application rate 200 ppm, 6 days after infestation, vs untreated, read-out: control in at least one of the three categories (mortality, anti-feedant effect, or growth inhibition)
Procedure: Example B1: Activity Against Chilo suppressalis (Striped Rice Stemborer)
24-well microtiter plates with artificial diet were treated with aqueous test solutions prepared from 10′000 ppm DMSO stock solutions by pipetting. After drying, the plates were infested with L2 larvae (6-8 per well). The samples were assessed for mortality, anti-feeding effect, and growth inhibition in comparison to untreated samples 6 days after infestation. Control of Chilo suppressalis by a test sample is given when at least one of the categories mortality, anti-feedant effect, and growth inhibition is higher than the untreated sample.

Diabrotica balteata = experiment: Activity against Diabrotica balteata (corn root worm), maize sprouts, L2 larvae; details: 96 h, application rate 200 ppm, 4 days after infestation, vs untreated, read-out: control in at least one of the two categories (mortality or growth inhibition)
Procedure: Example B2: Activity Against Diabrotica balteata (Corn Root Worm)
Maize sprouts placed onto an agar layer in 24-well microtiter plates were treated with aqueous test solutions prepared from 10′000 ppm DMSO stock solutions by spraying. After drying, the plates were infested with L2 larvae (6 to 10 per well). The samples were assessed for mortality and growth inhibition in comparison to untreated samples 4 days after infestation.

Euschistus heros = experiment: Activity against Euschistus heros (neotropical brown stink bug), soybean leaves, N2 nymphs; details: 120 h, application rate 200 ppm, 5 days after infestation, vs untreated, read-out: effect in at least one of the two categories (mortality or growth inhibition)
Procedure: Example B3: Activity Against Euschistus heros (Neotropical Brown Stink Bug)
Soybean leaves on agar in 24-well microtiter plates were sprayed with aqueous test solutions prepared from 10′000 ppm DMSO stock solutions. After drying the leaves were infested with N2 nymphs. The samples were assessed for mortality and growth inhibition in comparison to untreated samples 5 days after infestation.

Myzus persicae [1] = experiment: Activity against Myzus persicae (green peach aphid), feeding/contact activity; details: foliar, 144 h, application rate 200 ppm, 6 days after infestation, sunflower leaf discs, mixed ages
Procedure: Example B5: Activity Against Myzus persicae (Green Peach Aphid). Feeding/Contact Activity
Sunflower leaf discs were placed onto agar in a 24-well microtiter plate and sprayed with aqueous test solutions prepared from 10′000 ppm DMSO stock solutions. After drying, the leaf discs were infested with an aphid population of mixed ages. The samples were assessed for mortality 6 days after infestation.

Myzus persicae [2] = experiment: Activity against Myzus persicae (green peach aphid), intrinsic activity; details: 120 h, test rate 12 ppm, 5 days after infestation, sucrose solution through Parafilm
From the text: Example B6: Activity Against Myzus persicae (Green Peach Aphid). Intrinsic Activity
Test compounds prepared from 10′000 ppm DMSO stock solutions were applied by pipette into 24-well microtiter plates and mixed with sucrose solution. The plates were closed with a stretched Parafilm. A plastic stencil with 24 holes was placed onto the plate and infested pea seedlings were placed directly on the Parafilm. The infested plate was closed with a gel blotting paper and another plastic stencil and then turned upside down. The samples were assessed for mortality 5 days after infestation.

Plutella xylostella = experiment: Activity against Plutella xylostella (diamond back moth), artificial diet, eggs; details: 192 h, application rate 200 ppm, 8 days after infestation, vs untreated, read-out: control in at least one of the two categories (mortality or growth inhibition)
Procedure: Example B7: Activity Against Plutella xylostella (Diamond Back Moth)
24-well microtiter plates with artificial diet were treated with aqueous test solutions prepared from 10′000 ppm DMSO stock solutions by pipetting. After drying, Plutella eggs were pipetted through a plastic stencil onto a gel blotting paper and the plate was closed with it. The samples were assessed for mortality and growth inhibition in comparison to untreated samples 8 days after infestation. The following compounds gave an effect of at least 80% control in at least one of the two categories (mortality or growth inhibition) at an application rate of 200 ppm: P1, P2, P3, P4, P6, P7, P8, P9, P10, P11, P12, P13, P14, P15, P16, P17, P18, P19, P20, P21, P22, P23, P24, P25, P26, P27.

Spodoptera littoralis = experiment: Activity against Spodoptera littoralis (Egyptian cotton leaf worm), cotton leaf discs, L1 larvae; details: foliar, 72 h, application rate 200 ppm, 3 days after infestation, vs untreated, read-out: control in at least one of the three categories (mortality, anti-feedant effect, or growth inhibition)
Procedure: Example B8: Activity Against Spodoptera littoralis (Egyptian Cotton Leaf Worm)
Cotton leaf discs were placed onto agar in 24-well microtiter plates and sprayed with aqueous test solutions prepared from 10′000 ppm DMSO stock solutions. After drying the leaf discs were infested with five L1 larvae. The samples were assessed for mortality, anti-feeding effect, and growth inhibition in comparison to untreated samples 3 days after infestation. Control of Spodoptera littoralis by a test sample is given when at least one of the categories mortality, anti-feedant effect, and growth inhibition is higher than the untreated sample.

Tetranychus urticae = experiment: Activity against Tetranychus urticae (two-spotted spider mite), feeding/contact activity; details: foliar, 192 h
Procedure: Example B9: Activity Against Tetranychus urticae (Two-Spotted Spider Mite). Feeding/Contact Activity
Bean leaf discs on agar in 24-well microtiter plates were sprayed with aqueous test solutions prepared from 10′000 ppm DMSO stock solutions. After drying the leaf discs were infested with a mite population of mixed ages. The samples were assessed for mortality on mixed population (mobile stages) 8 days after infestation.

[3] = system: Frankliniella occidentalis; experiment: Activity against Frankliniella occidentalis (western flower thrips), feeding/contact activity; details: foliar, 168 h, application rate 200 ppm, 7 days after infestation, sunflower leaf discs, mixed ages
Procedure: Example B4: Activity Against Frankliniella occidentalis (Western Flower Thrips). Feeding/Contact Activity
Sunflower leaf discs were placed on agar in 24-well microtiter plates and sprayed with aqueous test solutions prepared from […] stock solutions. After drying the leaf discs were infested with a Frankliniella population of mixed ages. The samples were assessed for mortality 7 days after infestation.

C[C@@H](c1ncnn1-c1ccc(=O)n(C)n1)N(C)c1ncnc2c(C(F)(F)F)cc(Cl)cc12 [P6, 6-[5-[(1S)-1-[[6-chloro-8-(trifluoro-methyl)quinazolin-4-yl]-methyl-amino]ethyl]-1,2,4-triazol-1-yl]-2-methyl-pyr-idazin-3-one]
≥ 80%: percent control (mortality, anti-feedant effect or growth inhibition) at 200 ppm (Chilo suppressalis) | percent control (mortality or growth inhibition) at 200 ppm (Diabrotica balteata) | percent effect (mortality or growth inhibition) at 200 ppm (Euschistus heros) | mortality at 200 ppm (Myzus persicae [1]) | mortality at 12 ppm (Myzus persicae [2]) | percent control (mortality or growth inhibition) at 200 ppm (Plutella xylostella) | percent control (mortality, anti-feedant effect or growth inhibition) at 200 ppm (Spodoptera littoralis) | mortality at 200 ppm (Tetranychus urticae)

C[C@@H](c1nccnc1-c1ccc(=O)n(C)n1)N(C)c1ncnc2c(C(F)(F)F)cc(Cl)cc12 (single isomer, unassigned) [P27]
≥ 80%: percent control (mortality, anti-feedant effect or growth inhibition) at 200 ppm (Chilo suppressalis) | percent control (mortality or growth inhibition) at 200 ppm (Diabrotica balteata) | percent effect (mortality or growth inhibition) at 200 ppm (Euschistus heros) | mortality at 200 ppm (Myzus persicae [1]) | mortality at 12 ppm (Myzus persicae [2]) | percent control (mortality or growth inhibition) at 200 ppm (Plutella xylostella) | percent control (mortality, anti-feedant effect or growth inhibition) at 200 ppm (Spodoptera littoralis) | mortality at 200 ppm (Tetranychus urticae)

CC(c1nccnc1-c1ccc(=O)n(C)n1)N(C)c1ncnc2c(Cl)cc(C(F)(F)F)cc12 (centres unmarked) [P12, 6-[3-[1-[[8-chloro-6-(trifluoromethyl)quinazolin-4-yl]-methyl-amino]ethyl]pyrazin-2-yl]-2-methyl-pyridazin-3-one]
≥ 80%: percent control (mortality, anti-feedant effect or growth inhibition) at 200 ppm (Chilo suppressalis) | percent control (mortality or growth inhibition) at 200 ppm (Diabrotica balteata) | percent effect (mortality or growth inhibition) at 200 ppm (Euschistus heros) | mortality at 200 ppm (Myzus persicae [1]) | mortality at 12 ppm (Myzus persicae [2]) | percent control (mortality or growth inhibition) at 200 ppm (Plutella xylostella) | percent control (mortality, anti-feedant effect or growth inhibition) at 200 ppm (Spodoptera littoralis)

C[C@H](Nc1ncnc2c(C(F)(F)F)cc(C(F)(F)F)cc12)c1ncnn1C1=NN(C)C(=O)CC1 [P7, 6-[5-[(1S)-1-[[6,8-bis(trifluoromethyl)quinazolin-4-yl]amino]ethyl]-1,2,4-triazol-1-yl]-2-methyl-4,5-dihydropyridazin-3-one]
≥ 80%: percent control (mortality, anti-feedant effect or growth inhibition) at 200 ppm (Chilo suppressalis) | percent control (mortality or growth inhibition) at 200 ppm (Diabrotica balteata) | percent effect (mortality or growth inhibition) at 200 ppm (Euschistus heros) | mortality at 200 ppm (Myzus persicae [1]) | mortality at 12 ppm (Myzus persicae [2]) | percent control (mortality or growth inhibition) at 200 ppm (Plutella xylostella) | percent control (mortality, anti-feedant effect or growth inhibition) at 200 ppm (Spodoptera littoralis)

C[C@H](Nc1nc(=O)[nH]c2c(Cl)cc(C(F)(F)F)cc12)c1ncnn1-c1ccc(=O)n(C)n1 [P5, 8-chloro-4-[[(1S)-1-[2-(1-methyl-6-oxo-pyridazin-3-yl)-1,2,4-triazol-3-yl]ethyl]amino]-6-(trifluoromethyl)-1H-quinazolin-2-one]
≥ 80%: percent effect (mortality or growth inhibition) at 200 ppm (Euschistus heros) | mortality at 200 ppm [3]

CCn1nc(-n2ncnc2[C@H](C)Nc2ncnc3c(C(F)(F)F)cc(Cl)cc23)ccc1=O [P19, 6-[5-[(1S)-1-[[6-chloro-8-(trifluoro-methyl)quinazolin-4-yl]amino]ethyl]-1,2,4-triazol-1-yl]-2-ethyl-pyridazin-3-one]
≥ 80%: percent control (mortality, anti-feedant effect or growth inhibition) at 200 ppm (Chilo suppressalis) | percent control (mortality or growth inhibition) at 200 ppm (Diabrotica balteata) | percent effect (mortality or growth inhibition) at 200 ppm (Euschistus heros) | mortality at 200 ppm (Myzus persicae [1]) | mortality at 12 ppm (Myzus persicae [2]) | percent control (mortality or growth inhibition) at 200 ppm (Plutella xylostella) | percent control (mortality, anti-feedant effect or growth inhibition) at 200 ppm (Spodoptera littoralis)

C[C@@H](c1ncnn1C1=NN(C)C(=O)CC1)N(C)c1ncnc2c(C(F)(F)F)cc(Cl)cc12 [P24]
≥ 80%: percent control (mortality, anti-feedant effect or growth inhibition) at 200 ppm (Chilo suppressalis) | percent control (mortality or growth inhibition) at 200 ppm (Diabrotica balteata) | percent effect (mortality or growth inhibition) at 200 ppm (Euschistus heros) | mortality at 200 ppm (Myzus persicae [1]) | mortality at 12 ppm (Myzus persicae [2]) | percent control (mortality or growth inhibition) at 200 ppm (Plutella xylostella) | percent control (mortality, anti-feedant effect or growth inhibition) at 200 ppm (Spodoptera littoralis)

CC(c1nccnc1-c1ccc(=O)n(C)n1)N(C)c1ncnc2c(C(F)(F)F)cc(Cl)cc12 (racemic) [P21, 6-[3-[1-[[6-chloro-8-(trifluoromethyl)quinazolin-4-yl]-methyl-amino]ethyl]pyrazin-2-yl]-2-methyl-pyridazin-3-one]
≥ 80%: percent control (mortality, anti-feedant effect or growth inhibition) at 200 ppm (Chilo suppressalis) | percent control (mortality or growth inhibition) at 200 ppm (Diabrotica balteata) | percent effect (mortality or growth inhibition) at 200 ppm (Euschistus heros) | mortality at 200 ppm (Myzus persicae [1]) | mortality at 12 ppm (Myzus persicae [2]) | percent control (mortality or growth inhibition) at 200 ppm (Plutella xylostella) | percent control (mortality, anti-feedant effect or growth inhibition) at 200 ppm (Spodoptera littoralis)
